The record followed here is US20140357584A1 (priority 2011, published 2014).

SMILES strings stand for the structures. Where two headings read alike, the source gives them in different places. Some results are limits rather than exact numbers.

One series concerns four HIV-1 strains. As to the kind of experiment: Human PBMC assay, p24 antigen ELISA, summary over the four HIV-1 strains. Format: cell-based. The following applies: read-out: IC50, depending on the strains. The source says:
Justiprocumins B (2) and patentiflorin A (3) were further evaluated against a broad spectrum of HIV strains including four HIV1 clinical strains, BAL and SF162 (M-tropic), […], and 89.6 (a dual tropic strain). In these experiments, AZT was used as a positive control. […] It is clear that justiprocumin B (2) and patentification A (3), like AZT, could inhibit the particle production of all four HIV-1 strains effectively in a dose-dependent manner.
(§1) Anti-HIV Evaluation Using Four HIV1 Clinical Strains.
(§2) Four HIV1 clinical strains, BAL and SF162 (M-tropic), […], and 89.6 (a dual tropic strain), were used in the current study. Here a standardized human peripheral blood mononuclear cell culture (PBMC) assay was used to determine the compound susceptibility of these HIV-1 strains. AZT, an anti-HIV drug in clinical use, was used as a positive control. Briefly, human PBMCs were collected from a donor and stimulated for seven days. The preparations (compound or fraction) were then added to the cultured cells at a wide range of concentrations, and the different HIV-1 strains were used to challenge the cultured cells using 96-well plates. After seven-days of incubation, the supernatants were collected and the HIV p24 levels of the infected cells were determined using a p24 antigen ELISA. The ICsos were calculated by comparing p24 antigen values for the compounds (fraction)-containing wells with those for no drug control wells. In these experiments, AZT was used as positive controls.

The subject of series [1] is HIV-1 strain Bal: M-Tropic. As to the kind of experiment: Human PBMC assay, p24 antigen ELISA, HIV1 clinical strain Bal. Format: cell-based.
From the text: as §1, §2

In series [2] the test system is HIV-1 strain Lav.04: T-Tropic. As to the kind of experiment: Human PBMC assay, p24 antigen ELISA, HIV1 clinical strain Lav.04. Format: cell-based.
From the text: as §1, §2
(In general: In an ELISA, binding on a coated surface is turned into a signal by an enzyme label.)

Series [3] deals with HIV-1 strain SF162: M-Tropic. As to the kind of experiment: Human PBMC assay, p24 antigen ELISA, HIV1 clinical strain SF162. Format: cell-based.
From the text: as §1, §2

The subject of series [4] is HIV-1 strain 89.6: Dual-Tropic. As to the kind of experiment: Human PBMC assay, p24 antigen ELISA, HIV1 clinical strain 89.6. The class given is cell-based.
From the text: as §1, §2

Another series has as its system HIV replication. As to the kind of experiment: Anti-HIV Post-Entry protocol (HIV/HA pseudovirions, luciferase reporter, A549 target cells). The note with it: for inhibition at 1 µg/mL: Human immunodeficiency virus 1, A549, read-out: inhibition of HIV replication. The class given is cell-based.
The subject of series [5] is HIV reverse transcription. As to the kind of experiment: HIV gene expression of the R/U5 and U5/gag transcripts. Format: cell-based.
The test system of a further series is A549 cell line. As to the kind of experiment: Evaluation of toxicity (CellTiter 96), A549. The class given is cell-based, human. The note with it: at a concentration of 10 μg/mL. The protocol: (§3) Approximately 5000 cells seeded in a 96-well tissue culture plate in DMEM supplemented with FBS and penicillin/streptomycin. DMSO alone or compounds in 100% DMSO were added on the following day at appropriate concentrations and incubated with cells at 37° C. in 5% CO2 for 24 hr. After 24 hr, all media were removed and replaced with 100 μL fresh complete DMEM. After 48 hr post initial addition of DMSO or compound, 20 μL of CellTiter 96 Aqueous One Solution was added per well. After gentle mixing, plates were incubated at 37° C. in 5% CO2 for 4 hr. 25 μL of a 10% SDS solution was added per well and plates were stored at room temperature for approximately 12 hr. Absorbance was then measured at 450 nm using a plate reader.

Another series has as its system Hela cell line. As to the kind of experiment: Evaluation of toxicity (CellTiter 96), Hela. The following applies: at a concentration of 10 μg/mL. The class given is cell-based. The protocol:
as §3

The mark [6] stands for this setting: Human immunodeficiency virus 1, PBMC.
[7] abbreviates: Human immunodeficiency virus 1, BAL, PBMC, 168 h, read-out: IC50 Bal: M-Tropic, human PBMC, p24 antigen, seven days.
[8] abbreviates: Human immunodeficiency virus 1, PBMC, 168 h, read-out: IC50 Lav.04: T-Tropic, human PBMC, p24 antigen, seven days.
The mark [9] stands for this setting: Human immunodeficiency virus 1, PBMC, 168 h, read-out: IC50 SF162: M-Tropic, human PBMC, p24 antigen, seven days.
[10] abbreviates: Human immunodeficiency virus 1, PBMC, 168 h, read-out: IC50 89.6: Dual-Tropic, human PBMC, p24 antigen, seven days.

`Cc1cn([C@H]2C[C@H](N=[N+]=[N-])[C@@H](CO)O2)c(=O)[nH]c1=O` [AZT, zidovudine, reference compound]: the IC50 was 77 to 95 nM in the series on four HIV-1 strains (Human immunodeficiency virus 1, range over four HIV-1 strains, human PBMC); 77 nM in series [1] (Human immunodeficiency virus 1, BAL, PBMC, 168 h, human PBMC, p24 antigen, seven days, read-out: IC50 Bal: M-Tropic); 79 nM in series [2] (Human immunodeficiency virus 1, PBMC, 168 h, human PBMC, p24 antigen, seven days, read-out: IC50 Lav.04: T-Tropic); 85 nM in series [3] (Human immunodeficiency virus 1, PBMC, 168 h, human PBMC, p24 antigen, seven days, read-out: IC50 SF162: M-Tropic); 95 nM in series [4] (Human immunodeficiency virus 1, PBMC, 168 h, human PBMC, p24 antigen, seven days, read-out: IC50 89.6: Dual-Tropic).

Regarding `COc1cc2c(O[C@@H]3O[C@H](C)[C@@H](O[C@@H]4O[C@H](CO)[C@@H](O)[C@H](O)[C@H]4O)[C@H](OC(C)=O)[C@H]3O)c3c(c(-c4ccc5c(c4)OCO5)c2cc1OC)C(=O)OC3` [Justiprocumin A (1), 9-(1,3-benzodioxol-5-yl)-4-[(3-O-acetyl-6-deoxy-4-O-β-D-glucopyranosyl-β-D-glucopyranosyl)oxy]-6,7-dimethoxy-naphtho[2,3-c]furan-1(3H)-one], in the series on HIV replication, the inhibition at 1 µg/mL was greater than 100%.

As to `COc1cc2c(O[C@@H]3O[C@H](C)[C@@H](O[C@@H]4O[C@H](CO)[C@@H](O)[C@H](O)[C@H]4O)[C@H](O)[C@H]3OC(C)=O)c3c(c(-c4ccc5c(c4)OCO5)c2cc1OC)C(=O)OC3` [Justiprocumin B (2), 9-(1,3-benzodioxol-5-yl)-4-[(2-O-acetyl-6-deoxy-4-O-β-D-glucopyranosyl-β-D-glucopyranosyl)oxy]-6,7-dimethoxy-naphtho[2,3-c]furan-1(3H)-one], the IC50 with four HIV-1 strains (setting [6]) is 14 to 21 nM; in [1] (setting [7]) it was 15 nM; in series [2] (setting [8]), 21 nM; in [3] (setting [9]) it was 14 nM; in series [4] (setting [10]), 15 nM. For the same compound, the inhibition at 1 µg/mL in the series on HIV replication is greater than 100%.

`COc1cc2c(OC3OC(C)C(O)C(O)C3O)c3c(c(-c4ccc5c(c4)OCO5)c2cc1OC)C(=O)OC3` (stereo not shown) [Patentiflorin A (3), patentiflorin A]: in series [5], the “inhibition of HIV reverse transcription (R/U5 and U5/gag transcripts)” value is “effective inhibitor of HIV reverse transcription”. In addition, the IC50 in the series on four HIV-1 strains (setting [6]) was 24 to 37 nM; in series [1] (setting [7]) it was 30 nM; in series [1] (read-out: IC50 Bal: M-Tropic, human PBMC, p24 antigen, seven days, listed as Synthetic patentiflorin A (3)), 32 nM; in series [2] (setting [8]), 24 nM; in [2] (read-out: IC50 Lav.04: T-Tropic, human PBMC, p24 antigen, seven days, listed as Synthetic patentiflorin A (3)) it was 32 nM; in [3] (setting [9]), 37 nM. Further, the IC50 in series [3] (read-out: IC50 SF162: M-Tropic, human PBMC, p24 antigen, seven days, listed as Synthetic patentiflorin A (3)) is 30 nM; in the series with HIV replication (Human immunodeficiency virus 1, A549, read-out: anti-HIV activity IC50), less than 0.01 µg/mL; in series [4] (setting [10]), 32 nM; in series [4] (read-out: IC50 89.6: Dual-Tropic, human PBMC, p24 antigen, seven days, listed as Synthetic patentiflorin A (3)), 31 nM. Also, the “cytotoxicity against A549” value with A549 cell line is given as “no apparent cytotoxicity”. In addition, the “cytotoxicity against Hela” value in the series on Hela cell line is listed as “no apparent cytotoxicity”.

One may read the IC50 as the point on the concentration scale where inhibition reaches its midpoint. In general, inhibition refers to the percentage by which the read-out fell short of the control.
